# In patent US4501733A, “Polypeptides, a process for their preparation, their use, and a _process for the purification of polypeptides” (Ferring Arzneimittel GmbH, priority 1982, dated 1985):
# Square brackets hold non-standard residues; d marks the D form. Peptide text beside a SMILES is read from it. * marks the point of attachment. Propionyl = CCC(=O)*
# What was measured:
# ileum from guinea pigs = assay: Inhibition of SP- or Nle-SP-induced contraction of isolated guinea pig ileum (organ bath, isotonic measurement); details: for relative antagonistic potency (comparison of the antagonists): agonist 10^-8 M; for relative antagonistic potency (comparison of the antagonists) / Percentage inhibiting action: antagonist 10^-5 M; for Percentage inhibiting action: agonist SP or Nle-SP 10^-8 M, guinea pig ileum contraction; for substance P-antagonizing action: antagonist used in a concentration of 10^-5 M, agonist SP or Nle-SP
# Text: The ileum from guinea pigs was cut out after the animals had been sacrificed, was substantially freed from mesenteria by pulling at the caudal end and was freed from digestion products with Tyrode's solution. About 25 cm were discarded from the caudal end, and several sections of intestine 4 cm long were then removed and stored in Tyrode's solution. The Tyrode's solution was gassed with carbogen (95% of O2 and 5% of CO2). The Tyrode's solution contained the following substances per liter: 8 g of NaCl; […]; 1.3 g of CaCl2.2H2 O; 2.1 g of MgCl2.6H2 O; […]; 0.58 g of NaH2 PO4.1H2 O; and 11 g of D(+)-glucose.
# The Tyrode's solution was thermostatically controlled at 38° C. in an organ bath. Each preparation retained its complete contractility for 4 to 7 hours. 4 cm sections of intestine were tied on both sides and suspended in the organ bath. The contractions of the preparation were recorded under isotonic measurement conditions via a lever on a Kymograph drum. The writing was done by a felt-tip pen arranged as a lateral pen. The load arm was 225 mm and the power arm 20 mm long. The pre-load was about 0.3 g and the paper speed was 5 mm/minute. The organ bath contained 10 ml.
# As a rule, the test substances were added in volumes of 2 to 100 μl, and were distributed instantaneously in the organ bath by the gassing. All the test substances added were dissolved in Tyrode's solution or diluted with Tyrode's solution from a stock solution.
# Test substances: substance P (Serva) or norleucine-SP (Ferring, Kiel) were used as agonists, in doses of between 10^-9 and 10^-7 M. The following compounds were tested as potential antagonists:
# In the standard test, SP or Nle-SP was applied in a concentration of between 10^-9 and 10^-7 M, and was washed out after about 2 minutes. After a latency period of a further 3 minutes, the potential antagonist was applied in a concentration of 3×10^-6, 10^-5 or 3.3×10^-5 M, directly followed by a further dose of SP (Nle-SP). After renewed washing out and a waiting time of 3 minutes, SP (Nle-SP) was again applied in the same dose, in order to investigate whether the original contraction strength is reached.
# The reduction in the relative contraction of the ileum preparations as a result of using SP analogs was regarded as a measure of the relative activity as antagonists.
# ileum in guinea pigs = details: Folkers et al. 1981; Rosell et al. 1981; cited from earlier work
# SP-induced salivation = details: Folkers et al. 1981; Rosell et al. 1981; cited from earlier work
# vasodilation = details: Folkers et al. 1981; Rosell et al. 1981; cited from earlier work
Compound,relative antagonistic potency (comparison of the antagonists) (ileum from guinea pigs),Percentage inhibiting action (ileum from guinea pigs) [%],substance P-antagonizing action (ileum from guinea pigs),inhibition of the contraction of the ileum in guinea pigs caused by SP (ileum in guinea pigs),inhibition of SP-induced salivation (SP-induced salivation),inhibition of vasodilation caused by antidromic nerve stimulation and SP-induced vasodilation (vasodilation)
"CSCC[C@H](NC(=O)[C@H](CC(C)C)NC(=O)[C@@H](Cc1c[nH]c2ccccc12)NC(=O)[C@H](Cc1ccccc1)NC(=O)[C@@H](Cc1c[nH]c2ccccc12)NC(=O)[C@H](CCC(N)=O)NC(=O)[C@@H](N)CCCNC(=N)N)C(N)=O [compound 2, H-Arg-Gln-D-Trp-Phe-D-Trp-Leu-Met-NH2] (H-RQ[dW]F[dW]LM-NH2)",most powerful action,68.1 ± 8,substance P-antagonizing action,–,–,–
"CCC(=O)N[C@@H](CCC(N)=O)C(=O)N[C@H](Cc1c[nH]c2ccccc12)C(=O)N[C@@H](Cc1ccccc1)C(=O)N[C@H](Cc1c[nH]c2ccccc12)C(=O)N[C@@H](CC(C)C)C(=O)N[C@@H](CCSC)C(N)=O [compound 4, Propionyl-Gln-D-Trp-Phe-D-Trp-Leu-Met-NH2] (Propionyl-Q[dW]F[dW]LM-NH2)",lower but significant inhibiting action,29.3 ± 9.5,substance P-antagonizing action,–,–,–
"D-Pro^2, D-Phe^7 and D-Trp-^9 -SP",–,–,–,inhibit,inhibit,inhibit
"CSCC[C@H](NC(=O)[C@H](CC(C)C)NC(=O)[C@@H](Cc1c[nH]c2ccccc12)NC(=O)[C@H](Cc1ccccc1)NC(=O)[C@@H](Cc1c[nH]c2ccccc12)NC(=O)[C@H](CCC(N)=O)NC(=O)[C@@H]1CCCN1)C(N)=O [compound 3, H-Pro-Gln-D-Trp-Phe-D-Trp-Leu-Met-NH2] (H-PQ[dW]F[dW]LM-NH2)",most powerful action,69.5 ± 0.5,substance P-antagonizing action,–,–,–
